What all share (type): functional
Assay [1] concerns Mus musculus. As to the kind of experiment: Inhibition of DMBA-induced/TPA-promoted carcinogenesis in ICR mouse assessed as mouse bearing papillomas at 85 nmol administered 1 hr before TPA treatment measured after 10 weeks. Set-up: scale not given: the % may be the effect or the level left.
Assay [2] concerns Mus musculus. As to the kind of experiment: Inhibition of DMBA-induced/TPA-promoted carcinogenesis in ICR mouse assessed as number of skin papillomas per mouse at 85 nmol administered 1 hr before TPA treatment measured after 20 weeks.
The test system of assay [3] is Mus musculus. As to the kind of experiment: Inhibition of DMBA-induced/TPA-promoted carcinogenesis in ICR mouse assessed as mouse bearing papillomas at 85 nmol administered 1 hr before TPA treatment measured after 20 weeks. The arrangement: scale not given: the % may be the effect or the level left.
In assay [4] the test system is Mus musculus. As to the kind of experiment: Inhibition of DMBA-induced/TPA-promoted carcinogenesis in ICR mouse assessed as number of skin papillomas per mouse at 85 nmol administered 1 hr before TPA treatment measured after 14 weeks.
Assay [5] relates to Mus musculus. As to the kind of experiment: Inhibition of DMBA-induced/TPA-promoted carcinogenesis in ICR mouse assessed as mouse bearing papillomas at 85 nmol administered 1 hr before TPA treatment measured after 8 weeks. The arrangement: scale not given: the % may be the effect or the level left.

Each structure is given as a SMILES string.

On to `CC(C)=CCc1c2c(c(O)c3c(=O)c(-c4ccc(O)c(O)c4)coc13)C=CC(C)(C)O2` [AURICULASIN], for which the Activity was 27% in the assay on Mus musculus [1]; 4.9 in the assay on Mus musculus [2]; 87% in the assay on Mus musculus [3]; less than 3 in the assay with Mus musculus [4]; 13% in the assay with Mus musculus [5].

Source of the values: ChEMBL document CHEMBL1148156, “Chemical constituents of Millettia taiwaniana: structure elucidation of five new isoflavonoids and their cancer chemopreventive activity” (2004).
